Laboratory results as given in patent US20240123073A1, “NOVEL RIPK1 KINASE TARGETING PROTACS AND METHODS OF USE THEREOF” (Baylor College of Medicine, priority 2020, published 2024).

What follows are molecules tested against T1, RIPK1 (Homo sapiens, UniProt Q13546) (assay: RIPK1 degradation Western Blot assay). Conditions: human cells, 24 h incubation at 37° C., read-out: Degradation Activity (DC50, concentration at which 50% of RIPK1 kinase has been degraded).
T1 construct: endogenous in cells
T1 sequence (Q13546 1-671): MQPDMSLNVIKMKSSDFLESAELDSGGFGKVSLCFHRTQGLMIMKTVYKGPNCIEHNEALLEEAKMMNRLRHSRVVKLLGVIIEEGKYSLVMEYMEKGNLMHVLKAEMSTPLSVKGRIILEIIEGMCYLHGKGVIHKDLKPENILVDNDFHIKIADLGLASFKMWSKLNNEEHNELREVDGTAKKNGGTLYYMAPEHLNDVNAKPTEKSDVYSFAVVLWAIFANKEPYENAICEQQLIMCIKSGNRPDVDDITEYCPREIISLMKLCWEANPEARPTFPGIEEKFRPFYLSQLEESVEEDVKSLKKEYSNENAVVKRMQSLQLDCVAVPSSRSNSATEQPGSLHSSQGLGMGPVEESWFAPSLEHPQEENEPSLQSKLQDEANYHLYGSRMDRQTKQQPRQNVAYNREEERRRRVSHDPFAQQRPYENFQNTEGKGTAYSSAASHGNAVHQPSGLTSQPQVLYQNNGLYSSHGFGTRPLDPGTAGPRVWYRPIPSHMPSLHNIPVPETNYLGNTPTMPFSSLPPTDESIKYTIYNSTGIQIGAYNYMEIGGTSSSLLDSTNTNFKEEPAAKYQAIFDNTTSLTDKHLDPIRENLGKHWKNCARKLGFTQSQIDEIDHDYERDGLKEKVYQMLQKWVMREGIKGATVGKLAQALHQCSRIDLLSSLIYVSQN
Format: cell-based
Method: Cells were seeded in 6-well cell culture plates overnight prior to treatment and incubated with the indicated doses of compounds for 24 h at 37° C. Then, cell pellets were collected and resuspended with RIPA lysis buffer, which was added with 1% […] inhibitor and phosphatase inhibitor Cocktail. Whole-cell protein lysates were sonicated on ice for 20 seconds and centrifuged at 12 000 rpm for 20 min at 4° C. The supernatants were determined using the BCA method. Proteins were separated by sodium dodecyl sulfate-polyacrylamide gel electrophoresis and transferred to polyvinylidene fluoride membranes. The membranes were incubated with blocking buffer for 1 h. Then, the membranes were incubated at 4° C. overnight with the primary antibodies. After washing, the membranes were incubated for 1 h at room temperature with the secondary antibody and washed again. Changes in protein expression was detected using an enhanced chemiluminescence detection reagent. RIPK1 antibody was purchased from Santa Cruz.
The activities of exemplary compounds as described herein, measured in terms of the degradation concentration (DC50 representing the concentration at which 50% of the target, in this case RIPK1 kinase, has been degraded), are provided in Table 11. In Table 11, a DC50 value less than 1 μM is indicated as an “A;” a DC50 value from 1 μM to 10 μM is indicated as a “B” and a DC50 value of greater than 10 μM is indicated as a “C.”
A DC50 of under 1 µM was found for `Cn1c(=O)n(C2CCC(=O)NC2=O)c2ccc(CCC(=O)c3ccc(C#Cc4ccc(C(=O)NCCCn5cc(-c6ccc7c(c6)CCN7C(=O)Cc6cccc(OC(F)(F)F)c6)c6c(N)ncnc65)cc4)cn3)cc21` (centres unmarked) [Compound 81] in this work.
A DC50 of under 1 µM was found for `Cc1ncsc1-c1ccc([C@H](C)NC(=O)[C@@H]2C[C@@H](O)CN2C(=O)[C@@H](NC(=O)CCN2CCC(C#Cc3ccc(C(=O)NCCCn4cc(-c5ccc6c(c5)CCN6C(=O)Cc5cccc(OC(F)(F)F)c5)c5c(N)ncnc54)cc3)CC2)C(C)(C)C)cc1` [Compound 36] in this work.
A DC50 of over 10 µM was found for `Cc1ncsc1-c1ccc([C@H](CC(=O)N2CCC(N3CCN(c4ccc(C#Cc5ccc(C(=O)NCCCn6cc(-c7ccc8c(c7)CCN8C(=O)Cc7cccc(OC(F)(F)F)c7)c7c(N)ncnc76)cc5)cn4)CC3)CC2)NC(=O)[C@@H]2C[C@@H](O)CN2C(=O)[C@@H](NC(=O)C2(F)CC2)C(C)(C)C)cc1` [Compound 47] in this work.
A DC50 of 1 to 10 µM was found for `O=C1CCC(N2C(=O)c3cccc(NCCOCCOCCOCCNC(=O)c4ccnc(N5CCC(C(=O)N6N=CCC6c6ccccc6)CC5)n4)c3C2=O)C(=O)N1` (centres unmarked) [Compound 19, N-(2-(2-(2-(2-((2-(2,6-dioxopiperidin-3-yl)-1,3-dioxoisoindolin-4-yl)amino)ethoxy)ethoxy)ethoxy)ethyl)-2-(4-(5-phenyl-4,5-dihydro-1H-pyrazole-1-carbonyl)piperidin-1-yl)pyrimidine-4-carboxamide] in this work.
A DC50 of over 10 µM was found for `O=C1CCC(N2C(=O)c3cccc(NCCOCCOCCOCCNC(=O)c4ccc(-c5cc(N6CCC(C(=O)N7N=CCC7c7ccccc7)CC6)ncn5)cc4)c3C2=O)C(=O)N1` (centres unmarked) [Compound 21, N-(2-(2-(2-(2-((2-(2,6-dioxopiperidin-3-yl)-1,3-dioxoisoindolin-4-yl)amino)ethoxy)ethoxy)ethoxy)ethyl)-4-(6-(4-(5-phenyl-4,5-dihydro-1H-pyrazole-1-carbonyl)piperidin-1-yl)pyrimidin-4-yl)benzamide] in this work.
A DC50 of under 1 µM was found for `Nc1ncnc2c1c(-c1ccc3c(c1)CCN3C(=O)Cc1cccc(OC(F)(F)F)c1)cn2CCCNC(=O)c1ccc(C#Cc2ccc(N3CC4(CN(C(=O)CN5CCC(c6ccc(NC7CCC(=O)NC7=O)cc6)CC5)C4)C3)nc2)cc1` (centres unmarked) [Compound 68] in this work.
A DC50 of under 1 µM was found for `Cc1ncsc1-c1ccc([C@H](C)NC(=O)[C@@H]2C[C@@H](O)CN2C(=O)[C@@H](NC(=O)CCc2ccc(C#Cc3ccc(C(=O)NCCCn4cc(-c5ccc6c(c5)CCN6C(=O)Cc5cccc(OC(F)(F)F)c5)c5c(N)ncnc54)cc3)cn2)C(C)(C)C)cc1` [Compound 33] in this work.
A DC50 of under 1 µM was found for `Cc1ncsc1-c1ccc([C@H](CC(=O)NCCCCCCCCC(=O)NCCCn2cc(-c3ccc4c(c3)CCN4C(=O)Cc3cccc(OC(F)(F)F)c3)c3c(N)ncnc32)NC(=O)[C@@H]2C[C@@H](O)CN2C(=O)[C@H](NC(=O)C2(F)CC2)C(C)(C)C)cc1` [Compound 40, (2S,4R)—N—((S)-3-((9-((3-(4-amino-5-(1-(2-(3-(trifluoromethoxy)phenyl)acetyl)indolin-5-yl)-7H-pyrrolo[2,3-d]pyrimidin-7-yl)propyl)amino)-9-oxononyl)amino)-1-(4-(4-methylthiazol-5-yl)phenyl)-3-oxopropyl)-1-((R)-2-(1-fluorocyclopropane-1-carboxamido)-3,3-dimethylbutanoyl)-4-hydroxypyrrolidine-2-carboxamide] in this work.
A DC50 of 1 to 10 µM was found for `Nc1ncnc2c1c(-c1ccc3c(c1)CCN3C(=O)Cc1cccc(OC(F)(F)F)c1)cn2CCCNC(=O)CCOCCOCCOCCNc1cccc2c1C(=O)C(C1CCC(=O)NC1=O)C2=O` (centres unmarked) [Compound 8, N-(3-(4-amino-5-(1-(2-(3-(trifluoromethoxy)phenyl)acetyl)indolin-5-yl)-7H-pyrrolo[2,3-d]pyrimidin-7-yl)propyl)-3-(2-(2-(2-((2-(2,6-dioxopiperidin-3-yl)-1,3-dioxo-2,3-dihydro-1H-inden-4-yl)amino)ethoxy)ethoxy)ethoxy)propanamide] in this work.
A DC50 of under 1 µM was found for `Cc1ncsc1-c1ccc([C@H](CC(=O)N2CCN(c3ccc(C#Cc4ccc(C(=O)NCCCn5cc(-c6ccc7c(c6)CCN7C(=O)Cc6cccc(OC(F)(F)F)c6)c6c(N)ncnc65)cc4)cn3)CC2)NC(=O)[C@@H]2C[C@@H](O)CN2C(=O)[C@@H](NC(=O)C2(F)CC2)C(C)(C)C)cc1` [Compound 46] in this work.
A DC50 of 1 to 10 µM was found for `O=C(NCCOCCC(=O)N1CCC(C(=O)N2N=CCC2c2ccccc2)CC1)[C@@H]1NC2(CCCCC2)[C@@]2(C(=O)Nc3cc(Cl)ccc32)[C@H]1c1cccc(Cl)c1F` (stereo partly drawn) [Compound 15, (3′R,4'S,5′R)-6″-chloro-4′-(3-chloro-2-fluorophenyl)-2″-oxo-N-(2-(3-oxo-3-(4-(5-phenyl-4,5-dihydro-1H-pyrazole-1-carbonyl)piperidin-1-yl)propoxy)ethyl)dispiro[cyclohexane-1,2′-pyrrolidine-3′,3″-indoline]-5′-carboxamide] in this work.
A DC50 of under 1 µM was found for `Cc1ncsc1-c1ccc([C@H](C)NC(=O)[C@@H]2C[C@@H](O)CN2C(=O)[C@@H](NC(=O)CCOCCOCCOCCOCCn2cc(-c3ccc4c(c3)CCN4C(=O)Cc3cccc(OC(F)(F)F)c3)c3c(N)ncnc32)C(C)(C)C)cc1` [Compound 29, (2S,4R)-1-((S)-1-(4-amino-5-(1-(2-(3-(trifluoromethoxy)phenyl)acetyl)indolin-5-yl)-7H-pyrrolo[2,3-d]pyrimidin-7-yl)-17-(tert-butyl)-15-oxo-3,6,9,12-tetraoxa-16-azaoctadecan-18-oyl)-4-hydroxy-N—((S)-1-(4-(4-methylthiazol-5-yl)phenyl)ethyl)pyrrolidine-2-carboxamide] in this work.
A DC50 of 1 to 10 µM was found for `Nc1ncnc2c1c(-c1ccc3c(c1)CCN3C(=O)Cc1cccc(OC(F)(F)F)c1)cn2CCCNC(=O)CCCCCCCCNC(=O)[C@@H]1NC2(CCCCC2)[C@@]2(C(=O)Nc3cc(Cl)ccc32)[C@H]1c1cccc(Cl)c1F` [Compound 10, (3′R,4'S,5′R)-N-(9-((3-(4-amino-5-(1-(2-(3-(trifluoromethoxy)phenyl)acetyl)indolin-5-yl)-7H-pyrrolo[2,3-d]pyrimidin-7-yl)propyl)amino)-9-oxononyl)-6″-chloro-4′-(3-chloro-2-fluorophenyl)-2″-oxodispiro[cyclohexane-1,2′-pyrrolidine-3′,3″-indoline]-5′-carboxamide] in this work.
A DC50 of under 1 µM was found for `Cc1ncsc1-c1ccc([C@H](C)NC(=O)[C@@H]2C[C@@H](O)CN2C(=O)[C@@H](NC(=O)c2ccc(C#Cc3ccc(C(=O)NCCCn4cc(-c5ccc6c(c5)CCN6C(=O)Cc5cccc(OC(F)(F)F)c5)c5c(N)ncnc54)cc3)cn2)C(C)(C)C)cc1` [Compound 35] in this work.
A DC50 of under 1 µM was found for `Nc1ncnc2c1c(-c1ccc3c(c1)CCN3C(=O)Cc1cccc(OC(F)(F)F)c1)cn2CCCNC(=O)CCCCNC(=O)CN1CCC(c2ccc(NC3CCC(=O)NC3=O)cc2)CC1` (centres unmarked) [Compound 62] in this work.
A DC50 of under 1 µM was found for `Cc1ncsc1-c1ccc([C@H](C)NC(=O)[C@@H]2C[C@@H](O)CN2C(=O)[C@@H](NC(=O)CCc2ccc(C#Cc3ccc(CCC(=O)NCCCn4cc(-c5ccc6c(c5)CCN6C(=O)Cc5cccc(OC(F)(F)F)c5)c5c(N)ncnc54)cc3)cn2)C(C)(C)C)cc1` [Compound 34] in this work.
A DC50 of 1 to 10 µM was found for `O=C(NCCOCCOCCOCCNC(=O)[C@@H]1NC2(CCCCC2)[C@@]2(C(=O)Nc3cc(Cl)ccc32)[C@H]1c1cccc(Cl)c1F)c1ccnc(N2CCC(C(=O)N3N=CCC3c3ccccc3)CC2)n1` (stereo partly drawn) [Compound 20, (3′R,4'S,5′R)-6″-chloro-4′-(3-chloro-2-fluorophenyl)-2″-oxo-N-(1-oxo-1-(2-(4-(5-phenyl-4,5-dihydro-1H-pyrazole-1-carbonyl)piperidin-1-yl)pyrimidin-4-yl)-5,8,11-trioxa-2-azatridecan-13-yl)dispiro[cyclohexane-1,2′-pyrrolidine-3′,3″-indoline]-5′-carboxamide] in this work.
A DC50 of under 1 µM was found for `Nc1ncnc2c1c(-c1ccc3c(c1)CCN3C(=O)Cc1cccc(OC(F)(F)F)c1)cn2CCCNC(=O)c1ccc(C#CC2CCN(C3CCN(C(=O)CN4CCC(c5ccc(NC6CCC(=O)NC6=O)cc5)CC4)CC3)CC2)cc1` (centres unmarked) [Compound 66] in this work.
A DC50 of 1 to 10 µM was found for `Cc1ncsc1-c1ccc([C@H](C)NC(=O)[C@@H]2C[C@@H](O)CN2C(=O)[C@@H](NC(=O)CCN2CC3(CC(Oc4ccc(C(=O)NCCCn5cc(-c6ccc7c(c6)CCN7C(=O)Cc6cccc(OC(F)(F)F)c6)c6c(N)ncnc65)cn4)C3)C2)C(C)(C)C)cc1` [Compound 38] in this work.
A DC50 of over 10 µM was found for `O=C1CCC(C2C(=O)c3cccc(NCCOCCOCCC(=O)N4CCC(C(=O)N5N=CCC5c5ccccc5)CC4)c3C2=O)C(=O)N1` (centres unmarked) [Compound 12] in this work.
